Consider 1 substance from patent EP4722365A1, “DOUBLE-STRANDED NUCLEOTIDE COMPOUND FOR METABOLIC DISEASES AND USE THEREOF” (Visirna Therapeutics (Suzhou) Co., Ltd., priority 2023, dated 2024).

The test system of the series is DGAT2. In words: Inhibitory activity on the target gene DGAT2 in non-naive Cynomolgus macaque (Example 10, liver biopsy qPCR). In kind it is in vivo. The method, then:
The in-vivo experimental designs for subcutaneous injection in non-naive Cynomolgus macaque, the administration and the sample collection method were shown in the table below.
The day of administration to non-naive Cynomolgus macaque was defined as day 1, the day before it was day 0, the day after it was day 2, and so on. Each group had 2 animals. On days 1, 4, 8, 15, 22, 29, 36, 43, 50, and 57, the animals in Groups 1 and 2 were injected with the solvent or 4 mg/kg (0.5mL/kg) of the positive reference compound. On days 1 and 29, the animals in Groups 3 to 7 were injected subcutaneously with 0.5 mL/kg of the test compound.
On day 0 (0 h) before administration by SC, and days 7, 15, 28, 57, and 99 after administration, the liver sample was collected. Collection method: The animals was fasted for 12-16 hrs before sample collection. Collection of liver biopsy tissue: The collection process would be operated and recorded according to the SOP of the research institution. The location of the liver was determined by B ultrasound scan, the right liver was mainly used, and the gallbladder and major blood vessels were avoided. The biopsy needle was inserted under the guidance of the B-ultrasound probe. Guided by the image on the B-ultrasound screen, the needle entered the liver away from the gallbladder and major blood vessels, and the materials were sampled by puncture. After biopsy, the biopsy needle was withdrawn and the samples were collected. The obtained samples were immediately immersed in PBS with RNAlater®, and allowed to stand overnight at 4°C. Then the residual liquid was sucked off, and the remainder was stored at -80°C or below until it was transported in the presence of dry ice and detected.
Trizol was homogenized by Qiagen Tissue Lyser II at 26 Hz for 2 min and lyzed at room temperature for 5 min. 1 mL of the supernatant was taken, added to 200 uL of chloroform, shaken for 15 s, allowed to stand for 3 min, and centrifuged. The supernatant was collected, added with an equal volume of isopropanol, and stood overnight at -20°C for precipitation. The precipitate was washed twice with 70%, and dissolved in water without RNase. The concentration of the RNA sample was determined by Nanodrop ONE and diluted to 200 ng/µL with water without RNase for reverse transcription.
The experimental steps of reverse transcription could be made reference to the instruction of HiScript® III RT SuperMix for qPCR (+gDNA wiper). Briefly, a gDNA removal mixture was prepared according to the table below. A mixture (11 µL/sample) of 4 x gDNA wiper Mix and RNase-Free ddH2O and 1000 ng RNA sample (5 µL RNA sample with a concentration of 200 ng/µL) were added to a 96-well PCR reaction plate, incubated at 42°C for 2 min, and cooled on ice. 4 µL 5 x HiScript III qRT SuperMix and the DNA removed product from the previous step were added to a 96-well PCR reaction plate for reverse transcription. Reaction conditions: 37°C for 15 min; and 85°C for 5 sec. The cDNA was stored at 4°C for further analysis.
The method for detecting the expression levels of DGAT2 and GAPDH genes in the liver of Cynomolgus macaque by quantitative PCR was briefly described as follows: As shown in the table below, a qPCR reaction mixture was prepared, and 2 µL of a cDNA sample diluted 2 times with RNase-free water was added for PCR reaction. Reaction conditions: 95°C for 10 min; and 40 cycles of 95°C for 15 sec, and 60°C for 1 min.
All values were normalized to the average of the group on day 0.

The mark [1] stands for this setting: 3mpk subcutaneous on days 1 and 29, normalized to day 0.
Setting [2] is: 10mpk subcutaneous on days 1 and 29, normalized to day 0.

For the substance “dS319: sense (invAb)*acaccauaGfAfCfuauuugcuua[L96]; anti-sense Vpu*Af*a*GfcAfaauagUfcUfaUfgGfuGf* u”, under setting [1], the “Average inhibition rate, % (D28)” value is given as 86.6%; the “Average inhibition rate, % (D56)” value is 91.1%; the “Average inhibition rate, % (D99)” value is recorded as 72.2%. Also, under setting [2], the “Average inhibition rate, % (D28)” value is 96.0%; the “Average inhibition rate, % (D56)” value came to 97.9%; the “Average inhibition rate, % (D99)” value is reported as 89.1%.
